Laboratory results reported in patent US20160194299A1 (priority 2013, published 2016).
≈ marks a conversion by molar mass, not a printed value. Where two headings read alike, the source gives them in different places.

Key:
Mtb [1] = assay: microbe, parasite or virus in culture; format: cell-based, Mycobacterium tuberculosis; details: Mycobacterium tuberculosis, read-out: MIC (II)
Mtb [2] = assay: microbe, parasite or virus in culture; format: cell-based, Mycobacterium tuberculosis; details: Mycobacterium tuberculosis, read-out: MIC (I)
Mtb [3] = assay: microbe, parasite or virus in culture; format: cell-based, Mycobacterium tuberculosis; details: Mycobacterium tuberculosis, read-out: MIC (III)
in vitro = details: African green monkey

Structure (SMILES)	MIC (Mtb [1]) [µg/mL]	MIC (Mtb [2]) [µg/mL]	MIC (Mtb [3]) [µg/mL]	CC50 (in vitro) [µg/mL]
CCOC(=O)NC(=O)c1ccsc1NC(=O)c1cccc(F)c1 [Compound 172]	> 3	–	–	–
Cc1c(-c2ccccc2)sc(NC(=O)c2nc3ccccc3s2)c1C(=O)N1CCOCC1 [Compound 169]	> 3	–	–	–
CC(C)OC(=O)NC(=O)c1ccsc1NC(=O)c1cnc2ccoc2c1 [Compound 354]	–	> 3	> 25	25 to 50 (≈ 67 to 134 µM)
CCN1CCN(C(=O)c2ccsc2NC(=O)c2nc3ccccc3s2)CC1 [Compound 257]	–	> 3	5 to 25 (≈ 12.5 to 62.4 µM)	25 to 50 (≈ 62.4 to 125 µM)
CCOC(=O)NC(=O)c1ccsc1NC(=O)C1=NNC(=O)CC1 [Compound 64]	–	< 1	< 5	> 50
CCOC(=O)NC(=O)c1ccsc1NC(=O)c1sc(-c2ccncc2)nc1C [Compound 135]	–	> 3	> 25	> 50
CCOC(=O)NC(=O)c1ccsc1NC(=O)c1cc2c(F)cccc2s1 [Compound 331]	–	< 1	5 to 25 (≈ 12.7 to 63.7 µM)	< 25
CCOC(=O)NC(=O)c1ccsc1NC(=O)c1nc2c(N3CCN(C)CC3)ccnc2s1 [Compound 269]	–	< 1	5 to 25 (≈ 10.5 to 52.7 µM)	> 50
CC(C)OC(=O)NC(=O)c1ccsc1NC(=O)c1ccc2nccnc2c1 [Compound 399]	–	< 1	> 25	< 25
CCOC(=O)NC(=O)c1cc(C(=O)OCC)sc1NC(=O)c1nc2cnccc2s1 [Compound 279]	–	> 3	> 25	25 to 50 (≈ 55.7 to 111 µM)
CCOC(=O)NC(=O)c1cc(F)sc1NC(=O)c1nc2cccnc2s1 [Compound 318]	–	< 1	> 25	25 to 50 (≈ 63.4 to 127 µM)
CN(C)C(=O)NC(=O)c1ccsc1NC(=O)c1nc2cnccc2s1 [Compound 384]	–	> 3	> 25	< 25
CCOC(=O)NC(=O)c1ccsc1NC(=O)c1cc2ccncc2s1 [Compound 329]	–	< 1	> 25	< 25
CCOC(=O)NC(=O)c1ccsc1NC(=O)c1nc2cnccc2s1 [Compound 82]	–	< 1	< 5	> 50
CC(C)OC(=O)NC(=O)c1ccsc1NC(=O)c1cnc2ccnn2c1 [Compound 298]	–	< 1	< 5	< 25
CC(C)OC(=O)NC(=O)c1cc(F)sc1NC(=O)c1nc2cccnc2s1 [Compound 344]	–	< 1	> 25	25 to 50 (≈ 61.2 to 122 µM)
CC(C)OC(=O)NC(=O)c1cc(F)sc1NC(=O)c1ccn2nccc2c1 [Compound 346]	–	1 to 3 (≈ 2.56 to 7.68 µM)	> 25	< 25
CCOC(=O)NC(=O)c1ccsc1NC(=O)C1COc2ccccc2O1 (centres unmarked) [Compound 92]	–	> 3	5 to 25 (≈ 13.3 to 66.4 µM)	25 to 50 (≈ 66.4 to 133 µM)
CCOC(=O)NC(=O)c1cc(CC(=O)OC)sc1NC(=O)c1nc2cnccc2s1 [Compound 276]	–	> 3	> 25	25 to 50 (≈ 55.7 to 111 µM)
O=C(NC(=O)c1ccsc1NC(=O)c1nc2ccccc2s1)OCCOCc1ccccc1 [Compound 371]	–	< 1	5 to 25 (≈ 10.4 to 51.9 µM)	< 25
CCOC(=O)NC(=O)c1ccsc1NC(=O)C1=Cc2cccc(OC)c2OC1 [Compound 66]	–	< 1	< 5	> 50

Structure (SMILES)	MIC (Mtb [1]) [µg/mL]	MIC (Mtb [2]) [µg/mL]	MIC (Mtb [3]) [µg/mL]	CC50 (in vitro) [µg/mL]
CCOC(=O)NC(=O)c1ccsc1NC(=O)c1sc(C)nc1C(F)(F)F [Compound 137]	–	> 3	> 25	> 50
CCOC(=O)NC(=O)c1ccsc1NC(=O)c1ccnc(NC(=O)N2CCS(=O)(=O)CC2)c1 [Compound 47]	–	< 1	> 25	> 50
CCOC(=O)NC(=O)c1ccsc1NC(=O)c1cnc(O)cn1 [Compound 129]	–	> 3	> 25	> 50
CCOC(=O)NC(=O)c1ccsc1NC(=O)c1ccnc2ccc(OC)cc12 [Compound 123]	–	> 3	5 to 25 (≈ 12.5 to 62.6 µM)	> 50
CCOC(=O)NC(=O)c1ccsc1NC(=O)c1nc(-c2ccccc2)oc1C [Compound 130]	–	> 3	> 25	> 50
CCOC(=O)NC(=O)c1ccsc1NC(=O)c1cnc2c(Br)cnn2c1 [Compound 266]	–	< 1	> 25	25 to 50 (≈ 57 to 114 µM)
CC(C)OC(=O)NC(=O)c1ccsc1NC(=O)c1c(F)c(F)c(F)c(F)c1F [Compound 296]	–	> 3	5 to 25 (≈ 11.8 to 59.2 µM)	< 25
CCOC(=O)NC(=O)c1ccsc1NC(=O)C1=Cc2ccccc2OC1 [Compound 67]	–	< 1	< 5	> 50
CCOC(=O)NC(=O)c1cc(F)sc1NC(=O)c1cnc2ccnn2c1 [Compound 341]	–	< 1	> 25	25 to 50 (≈ 66.3 to 133 µM)
CCOC(=O)NC(=O)c1ccsc1NC(=O)c1nc2c(s1)CCN(C)C2 [Compound 85]	–	1 to 3 (≈ 2.53 to 7.6 µM)	< 5	> 50
O=C(NC(=O)c1ccsc1NC(=O)c1nc2cnccc2s1)OC1CCCC1 [Compound 380]	–	< 1	> 25	< 25
O=C(NC(=O)c1ccsc1NC(=O)c1nc2cnccc2s1)OCCC(F)(F)F [Compound 320]	–	< 1	> 25	> 50
O=C(NC(=O)c1ccsc1NC(=O)c1cnc2ccnn2c1)OCc1ccccc1F [Compound 285]	–	> 3	> 25	< 25
C=CCOC(=O)NC(=O)c1ccsc1NC(=O)c1cnc2ccnn2c1 [Compound 297]	–	< 1	< 5	< 25
CC(C)(C)C(=O)Nc1cc(C(=O)Nc2sccc2C(=O)NC(=O)OCCF)ccn1 [Compound 29]	–	< 1	> 25	25 to 50 (≈ 57.3 to 115 µM)
CCOC(=O)NC(=O)c1ccsc1NC(=O)c1cnc2ccccc2n1 [Compound 87]	–	< 1	< 5	> 50
CCOC(=O)NC(=O)c1ccsc1NC(=O)c1ccnnc1 [Compound 86]	–	1 to 3 (≈ 3.12 to 9.37 µM)	5 to 25 (≈ 15.6 to 78 µM)	> 50
CC(=O)N1CCC(OC(=O)NC(=O)c2ccsc2NC(=O)c2cn3ccccc3n2)CC1 [Compound 375]	–	> 3	> 25	25 to 50 (≈ 54.9 to 110 µM)
CC(C)OC(=O)NC(=O)c1ccsc1NC(=O)c1cc2ccccn2n1 [Compound 352]	–	< 1	> 25	25 to 50 (≈ 67.1 to 134 µM)
C#CCOC(=O)NC(=O)c1ccsc1NC(=O)c1nc2ccccc2s1 [Compound 303]	–	< 1	> 25	< 25
O=C(NC(=O)c1ccsc1NC(=O)c1cnc2ccnn2c1)OCCC(F)(F)F [Compound 322]	–	> 3	> 25	< 25

Structure (SMILES)	MIC (Mtb [1]) [µg/mL]	MIC (Mtb [2]) [µg/mL]	MIC (Mtb [3]) [µg/mL]	CC50 (in vitro) [µg/mL]
C#CCOC(=O)NC(=O)c1ccsc1NC(=O)c1nc2cnccc2s1 [Compound 100]	–	< 1	> 25	25 to 50 (≈ 64.7 to 129 µM)
CCOC(=O)N(C)C(=O)c1ccsc1NC(=O)c1nc2cnccc2s1 [Compound 376]	–	> 3	> 25	< 25
CCOC(=O)NC(=O)c1ccsc1NC(=O)c1nc2ncccn2n1 [Compound 125]	–	> 3	5 to 25 (≈ 13.9 to 69.4 µM)	> 50
O=C(NC(=O)c1ccsc1NC(=O)c1nc2ccccc2s1)OCCF [Compound 37]	–	< 1	> 25	> 50
COCCOC(=O)NC(=O)c1ccsc1NC(=O)c1cn2ccccc2n1 [Compound 373]	–	> 3	> 25	25 to 50 (≈ 64.4 to 129 µM)
CCOC(=O)NC(=O)c1ccsc1NC(=O)c1cn2ncccc2n1 [Compound 93]	–	< 1	< 5	> 50
COCCOC(=O)NC(=O)c1ccsc1NC(=O)c1cnc2ccnn2c1 [Compound 372]	–	< 1	> 25	25 to 50 (≈ 64.2 to 128 µM)
O=C(Nc1sccc1C(=O)OCCN1CCOCC1)c1nc2ccccc2s1 [Compound 291]	–	> 3	> 25	> 50
CCOC(=O)NC(=O)c1ccsc1NC(=O)c1nc2cnc(C)cc2s1 [Compound 94]	–	< 1	> 25	> 50
CCOC(=O)NC(=O)c1ccsc1NC(=O)c1nc2ccc(NC(=O)CN)cc2s1 [Compound 393]	–	> 3	> 25	< 25
CC(C)OC(=O)NC(=O)c1ccsc1NC(=O)c1ccn2nccc2c1 [Compound 317]	–	< 1	> 25	< 25
CCOC(=O)NC(=O)c1ccsc1NC(=O)c1nsc2ccccc12 [Compound 378]	–	> 3	> 25	25 to 50 (≈ 66.6 to 133 µM)
CCOC(=O)N(C)C(=O)c1ccsc1NC(=O)c1cn2ccccc2n1 [Compound 377]	–	> 3	> 25	25 to 50 (≈ 67.1 to 134 µM)
CCOC(=O)NC(=O)c1ccsc1NC(=O)c1nc2ccccc2o1 [Compound 396]	–	< 1	> 25	< 25
CC(C)OC(=O)NC(=O)c1ccsc1NC(=O)c1cc2ncccn2n1 [Compound 340]	–	< 1	> 25	25 to 50 (≈ 67 to 134 µM)
CCOC(=O)NC(=O)c1ccsc1NC(=O)c1nc2c(s1)CNCC2 [Compound 84]	–	1 to 3 (≈ 2.63 to 7.89 µM)	> 25	> 50
CCOC(=O)NC(=O)c1ccsc1NC(=O)c1cc2cnccc2s1 [Compound 334]	–	< 1	> 25	> 50
CC(C)OC(=O)NC(=O)c1ccsc1NC(=O)c1nc2ncccc2s1 [Compound 390]	–	< 1	> 25	< 25
CCC(CC)OC(=O)NC(=O)c1ccsc1NC(=O)c1nc2cnccc2s1 [Compound 328]	–	< 1	> 25	< 25
O=C(NC(=O)c1ccsc1NC(=O)c1nc2cnccc2s1)OCc1ccccc1 [Compound 101]	–	< 1	5 to 25 (≈ 11.4 to 57 µM)	> 50
